≈ marks a conversion by molar mass, not a printed value. Where two headings read alike, the source gives them in different places.
Assays:
Format in all cases: cell-based
[1] = tested on: Klebsiella oxytoca isolates; assay: MIC of cephalosporins alone or with clavulanate/tazobactam; details: clavulanate 2:1, tazobactam 4 μg/mL
[2] = tested on: Klebsiella pneumoniae isolates; assay: as above; details: clavulanate 2:1, tazobactam 4 μg/mL
[3] = tested on: ESBL Escherichia coli isolates; assay: Killing kinetics (time-kill); details: 4X MIC of CTB+CLA
[4] = tested on: 385 Escherichia coli and 126 Klebsiella pneumoniae isolates; assay: MIC, MIC50 and MIC90 by reference broth microdilution against 511 UTI/bloodstream isolates (USA and Europe 2014-2015)
[5] = 365 isolates producing CTX-M enzymes

Nc1nc(/C(=C/CC(=O)O)C(=O)N[C@@H]2C(=O)N3C(C(=O)O)=CCS[C@H]23)cs1 [Ceftibuten, ceftibuten]
MIC ([1]; AKOX1005 (SHV-2, TEM-1, DHA-1)): 2 µg/mL
MIC ([1]; AKOX1009 (CTX-M-15)): 4 µg/mL
MIC ([2]; AKPN1159 (SHV-12)): 4 µg/mL
MIC ([2]; AKPN1161 (SHV-7)): 2 µg/mL
MIC ([2]; AKPN1162 (CTX-M-15, SHV-12)): 32 µg/mL
MIC ([2]; AKPN1166 (CTX-M-14, SHV-12)): 4 µg/mL
MIC ([2]; AKPN1167 (SHV-2)): 2 µg/mL
Change in Log10 CFU/mL From Inoculum (0 hr) ([3]; AECO1156, 2 h): 0.33 Log10 CFU/mL
Change in Log10 CFU/mL From Inoculum (0 hr) ([3]; AECO1156, 4 h): 2.35 Log10 CFU/mL
Change in Log10 CFU/mL From Inoculum (0 hr) ([3]; AECO1156, 6 h): 3.28 Log10 CFU/mL
Change in Log10 CFU/mL From Inoculum (0 hr) ([3]; AECO1156, 24 h): 3.98 Log10 CFU/mL
Change in Log10 CFU/mL From Inoculum (0 hr) ([3]; AECO1157, 2 h): 1.02 Log10 CFU/mL
Change in Log10 CFU/mL From Inoculum (0 hr) ([3]; AECO1157, 4 h): 2.88 Log10 CFU/mL
Change in Log10 CFU/mL From Inoculum (0 hr) ([3]; AECO1157, 6 h): 3.29 Log10 CFU/mL
Change in Log10 CFU/mL From Inoculum (0 hr) ([3]; AECO1157, 24 h): 3.63 Log10 CFU/mL
Change in Log10 CFU/mL From Inoculum (0 hr) ([3]; AECO1162, 2 h): −0.36 Log10 CFU/mL
Change in Log10 CFU/mL From Inoculum (0 hr) ([3]; AECO1162, 4 h): 0.17 Log10 CFU/mL
Change in Log10 CFU/mL From Inoculum (0 hr) ([3]; AECO1162, 6 h): 2.19 Log10 CFU/mL
Change in Log10 CFU/mL From Inoculum (0 hr) ([3]; AECO1162, 24 h): 3.46 Log10 CFU/mL
Change in Log10 CFU/mL From Inoculum (0 hr) ([3]; AECO1166, 2 h): −1.30 Log10 CFU/mL
Change in Log10 CFU/mL From Inoculum (0 hr) ([3]; AECO1166, 4 h): 0.58 Log10 CFU/mL
Change in Log10 CFU/mL From Inoculum (0 hr) ([3]; AECO1166, 6 h): 2.24 Log10 CFU/mL
Change in Log10 CFU/mL From Inoculum (0 hr) ([3]; AECO1166, 24 h): 3.71 Log10 CFU/mL
% of the isolates inhibited at ≦1 μg/mL [4, 5]: 19.7%
% of the isolates inhibited at ≦8 μg/mL [4, 5]: 64.4%
MIC50 ([4]; 365 isolates producing CTX-M enzymes (no transferrable AmpC/carbapenemase)): 8 µg/mL (≈ 19.5 µM)
MIC90 ([4]; 365 isolates producing CTX-M enzymes (no transferrable AmpC/carbapenemase), read-out: MIC90): 32 µg/mL (≈ 78 µM)
MIC90 ([4]; 379 E. coli or K. pneumoniae isolates genotyped for CTX-M, TEM, or SHV ESBLs, 2:1 ratio): ~32 µg/mL
MIC50 ([4]; 511 isolates): 8 µg/mL (≈ 19.5 µM)
MIC90 ([4]; 511 isolates): >32 µg/mL
MIC90 ([4]; 511 isolates, read-out: MIC90): > 32 µg/mL
MIC50 ([4]; All CTX-M-producing K pneumoniae (71)): 8 µg/mL (≈ 19.5 µM)
MIC90 ([4]; All CTX-M-producing K pneumoniae (71), read-out: MIC90): > 32 µg/mL
MIC50 ([4]; All CTX-M-producing isolates (365)): 8 µg/mL (≈ 19.5 µM)
MIC90 ([4]; All CTX-M-producing isolates (365), read-out: MIC90): 32 µg/mL (≈ 78 µM)
MIC50 ([4]; Enterobacteriaceae (511)): 8 µg/mL (≈ 19.5 µM)
MIC90 ([4]; Enterobacteriaceae (511), read-out: MIC90): > 32 µg/mL
MIC50 ([4]; Escherichia coli, All CTX-M-producing E. coli (294)): 8 µg/mL (≈ 19.5 µM)
MIC90 ([4]; Escherichia coli, All CTX-M-producing E. coli (294), read-out: MIC90): 32 µg/mL (≈ 78 µM)
MIC50 ([4]; Escherichia coli, E. coli (385)): 8 µg/mL (≈ 19.5 µM)
MIC90 ([4]; Escherichia coli, E. coli (385), read-out: MIC90): > 32 µg/mL
MIC50 ([4]; Isolates producing CTX-M Group 1 (276)): 8 µg/mL (≈ 19.5 µM)
MIC90 ([4]; Isolates producing CTX-M Group 1 (276), read-out: MIC90): > 32 µg/mL
MIC50 ([4]; Isolates producing CTX-M Group 9 (92)): 1 µg/mL (≈ 2.44 µM)
MIC90 ([4]; Isolates producing CTX-M Group 9 (92), read-out: MIC90): 16 µg/mL (≈ 39 µM)
MIC50 ([4]; Isolates producing SHV ESBL (18)): 1 µg/mL (≈ 2.44 µM)
MIC90 ([4]; Isolates producing SHV ESBL (18), read-out: MIC90): 16 µg/mL (≈ 39 µM)
MIC50 ([4]; Isolates producing transferable AmpC (57)): > 32 µg/mL
MIC90 ([4]; Isolates producing transferable AmpC (57), read-out: MIC90): > 32 µg/mL
MIC50 ([4]; K pneumoniae (126)): 8 µg/mL (≈ 19.5 µM)
MIC90 ([4]; K pneumoniae (126), read-out: MIC90): > 32 µg/mL
MIC50 ([4]; KPC-producers (25)): 8 µg/mL (≈ 19.5 µM)
MIC90 ([4]; KPC-producers (25), read-out: MIC90): 32 µg/mL (≈ 78 µM)
cumulative % of isolates at MIC ([4]; MIC 0.015 μg/mL, All CTX-M-producing K pneumoniae (71)): (0.0) %
cumulative % of isolates at MIC ([4]; MIC 0.015 μg/mL, All CTX-M-producing isolates (365)): (0.0) %
cumulative % of isolates at MIC ([4]; MIC 0.015 μg/mL, Isolates producing CTX-M Group 9 (92)): (0.0) %
cumulative % of isolates at MIC ([4]; MIC 0.015 μg/mL, Isolates producing SHV ESBL (18)): (0.0) %
cumulative % of isolates at MIC ([4]; MIC 0.015 μg/mL, K pneumoniae (126)): (0.0) %
cumulative % of isolates at MIC ([4]; MIC 0.03 μg/mL, All CTX-M-producing K pneumoniae (71)): (1.4) %
cumulative % of isolates at MIC ([4]; MIC 0.03 μg/mL, All CTX-M-producing isolates (365)): (0.3) %
cumulative % of isolates at MIC ([4]; MIC 0.03 μg/mL, E. coli (385)): (0.0) %
cumulative % of isolates at MIC ([4]; MIC 0.03 μg/mL, Isolates producing CTX-M Group 9 (92)): (1.1) %
cumulative % of isolates at MIC ([4]; MIC 0.03 μg/mL, Isolates producing SHV ESBL (18)): (11.1) %
cumulative % of isolates at MIC ([4]; MIC 0.03 μg/mL, K pneumoniae (126)): (4.0) %
cumulative % of isolates at MIC ([4]; MIC 0.06 μg/mL, All CTX-M-producing E. coli (294)): (0.0) %
cumulative % of isolates at MIC ([4]; MIC 0.06 μg/mL, All CTX-M-producing K pneumoniae (71)): (2.8) %
cumulative % of isolates at MIC ([4]; MIC 0.06 μg/mL, All CTX-M-producing isolates (365)): (0.5) %
cumulative % of isolates at MIC ([4]; MIC 0.06 μg/mL, E. coli (385)): (0.3) %
cumulative % of isolates at MIC ([4]; MIC 0.06 μg/mL, Isolates producing CTX-M Group 9 (92)): (2.2) %
cumulative % of isolates at MIC ([4]; MIC 0.06 μg/mL, Isolates producing SHV ESBL (18)): (16.7) %
cumulative % of isolates at MIC ([4]; MIC 0.06 μg/mL, K pneumoniae (126)): (6.3) %
cumulative % of isolates at MIC ([4]; MIC 0.5 μg/mL, All CTX-M-producing E. coli (294)): (10.5) %
cumulative % of isolates at MIC ([4]; MIC 0.5 μg/mL, All CTX-M-producing K pneumoniae (71)): (7.0) %
cumulative % of isolates at MIC ([4]; MIC 0.5 μg/mL, All CTX-M-producing isolates (365)): (9.9) %

— US20180015100A1, “COMBINATION PRODUCTS FOR THE TREATMENT OF BACTERIAL INFECTIONS AND METHODS OF PRODUCING OR DOSING OF SAME” (priority 2016, published 2018)
